Holding throughout (format): cell-based, vesicular stomatitis virus
Assay [1] deals with VSV-P-prot.
In assay [2] the test system is VSV-P-prot. The source holds these as a separate data set.
Assay [3] concerns VSV-L-Prot.
In assay [4] the test system is VSV-ΔP-RFP.
Assay [5] has as its system VSV-GFP-Prot-L (VSV-Prot-Off).
For assay [6], the system named is VSV-L-Prot. The source holds these as a separate data set.
The subject of assay [7] is standard recombinant VSV without P-prot control mechanism.
The subject of assay [8] is VSV-GP-Luc-IL12-Prot-Off.
The test system of assay [9] is VSV-GP-TM-IL12-Prot-Off.
Assay [10] relates to VSV-GP-IL12.
Assay [11] has as its system VSV-GP-IL12-Prot-Off.

“Also recorded” adds a separate entry of the source.

Five molecules from patent publication US20220228172A1 (priority 2019, published 2022) can be followed below.

With `CC(C)CN(C[C@@H](O)[C@H](Cc1ccccc1)NC(=O)O[C@H]1CCOC1)S(=O)(=O)c1ccc(N)cc1` [amprenavir], in assay [1], the “VSV-P-prot activity at doses above the plateau” value is “deteriorated at higher doses” and the “amprenavir dose at which VSV-P-prot activity started” value is reported as 100 nM. Besides, in [2], the “viral gene expression (GFP signal) of VSV-P-prot” value is on record as “strong GFP signal within 24 hours in the presence but not in the absence” and the “viral replication (plaque formation) of VSV-P-prot” value (shortened to “viral replication … of VSV-P-prot”) is given as “protease inhibitor-dependent”. Besides, the “VSV-L-Prot replication in presence of protease inhibitor” value in assay [3] is reported as “replicates to high titers in its presence”. Also, in assay [4], the “RFP signal in VSV-ΔP-RFP infected cells” value was “only detectable in the presence of P196PR2 and a specific HIV protease inhibitor”. Also, in assay [5], the “APV dose at which VSV-Prot-OFF activity started to decrease” value came to 30 nM; the “amprenavir concentration at which VSV-GFP-Prot-L activity started to decline” value was 1 µM; the “amprenavir concentrations at which VSV-GFP-Prot-L activity was high” value is 0 to 300 nM; the “effect on VSV-GFP-Prot-L activity (GFP expression, plaque assays)” value is on record as “stop of virus activity”. In [6], the “amprenavir dose at which VSV-L-prot activity started” value came out at 100 nM and the “amprenavir dose of maximum VSV-L-prot activity” value turned out to be 30 µM. The “effect of amprenavir on viral replication of standard recombinant VSV” value in assay [7] is reported as “not affected”.
Consider `COC(=O)N[C@H](C(=O)N[C@@H](Cc1ccccc1)[C@@H](O)CN(Cc1ccc(-c2ccccn2)cc1)NC(=O)[C@@H](NC(=O)OC)C(C)(C)C)C(C)(C)C` [atazanavir], for which the “virus titer of VSV-GP-Luc-IL12-Prot-Off with and without linker” value in [8] is reported as “inversely correlated”. The “virus titer of VSV-GP-TM-IL12-Prot-Off (-w/ol, -fl)” value in [9] is reported as “inversely correlated”. The “virus titer of VSV-GP-IL12” value in [10] is “uneffected”.
As to `CC(C)(C)NC(=O)[C@@H]1CN(Cc2cccnc2)CCN1C[C@@H](O)C[C@@H](Cc1ccccc1)C(=O)N[C@H]1c2ccccc2C[C@H]1O` [indinavir], in assay [2], the “viral gene expression (GFP signal) of VSV-P-prot” value is “facilitated” and the “viral replication … of VSV-P-prot” value is recorded as “facilitated”. Moreover, in assay [3], the “VSV-L-Prot replication in presence of protease inhibitor” value is reported as “replicates to high titers in its presence”.
For `Cc1cccc(C)c1OCC(=O)N[C@@H](Cc1ccccc1)[C@@H](O)C[C@H](Cc1ccccc1)NC(=O)[C@H](C(C)C)N1CCCNC1=O` [lopinavir], the “regulation of VSV-P-prot (data not shown)” value in assay [2] (10 μM) is “shown to regulate VSV-P-prot”.
For the molecule `CC(C)(C)NC(=O)[C@@H]1C[C@@H]2CCCC[C@@H]2CN1C[C@@H](O)[C@H](Cc1ccccc1)NC(=O)[C@H](CC(N)=O)NC(=O)c1ccc2ccccc2n1` [saquinavir], in assay [2], the “viral gene expression (GFP signal) of VSV-P-prot” value is given as “facilitated” and the “viral replication … of VSV-P-prot” value is “facilitated”. In assay [8], the “IL12 expression in supernatant (ELISA)” value was “inversely correlated”. Moreover, in assay [3], the “VSV-L-Prot replication in presence of protease inhibitor” value is “replicates to high titers in its presence”. Besides, the “inhibition of VSV-GFP-Prot-L replication” value in assay [5] is “even stronger inhibition of virus replication than amprenavir; also recorded: strongest suppression of viral replication”. The “virus titer of VSV-GP-IL12-Prot-Off with and without linker” value in assay [11] was “dependent on the presence and concentration; also recorded: inversely correlated”.
